Residues, ends and D or L forms follow the SMILES beside them. *: point of attachment. Fmoc = O=C(OCC1c2ccccc2-c2ccccc21)*
Test system: AEP
Assay: Hydrolysis of asparagine peptide substrate by B cell lysosomal fractions
Assay type: biochemical, human
Conditions: increasing concentrations of peptide, Fig 3b
Procedure: The invention will now be described by reference to the following Examples and Figures wherein • Figure 1: Processing of TTCF by a leupeptin-insensitive cysteine endopeptidase activity. (a) TTCF was digested in vitro in the presence of disrupted lysosomes (1-2 µg) in the presence or absence of iodoacetamide (1 mM), leupeptin, E64 or pepstatin (each at 0.1 mg/ml). Digestions were in 0.1 M NH4 acetate at pH 4.5 or Na2HPO4, pH 6.0 or 7.0. After 4 hours at 37°C, the reactions were separated by Tris-tricine SDS-PAGE and stained with Coomassie Blue. (b) Cleavage sites: TTCF digestion products were separated by SDS PAGE and electrophoretically transferred to nitrocellulose membrane. Individual fragments numbered 1-6 were subjected to 5 cycles of Edman degradation. N-terminal sequence obtained is shown in bold following upstream residues from TTCF (tetanus toxin numbering). […] (c) Each fraction was analysed by SDS-PAGE and Western blotting. […] Release of 7-amino-4-methyl coumarin was measured after 10, 20 or 30 minutes. […] At different times the cells were washed, fixed in 0.05 % glutaraldehyde and antigen presentation measured using proliferation of different autologous TTCF-specific T cell clones. c, AEP pre-processing of TTCF speeds antigen presentation. […] Presentation was measured after 60 minutes of antigen pulsing using EBV B cells. […]

C[C@H](NC(=O)OCC1c2ccccc2-c2ccccc21)C(=O)N[C@@H](CCC(=O)O)C(=O)N[C@@H](CC(N)=O)C(=O)N[C@@H](CCCCN)C(N)=O [AENK, Ala-Glu-Asn-Lys-NH] (Fmoc-AENK-NH2)
cleavage of Z-Val-Ala-Asn-NHMec: completely blocked
